Laboratory results as given in patent publication US12590066B2, “Fused-heterocyclyl-carbonohydrazonoyl dicyanide compounds and use thereof” (KOREA INSTITUTE OF SCIENCE AND TECHNOLOGY, priority 2020, dated 2026).

Legend:
tau protein = biological target: T1, tau protein (Homo sapiens, UniProt P10636); test: Tau-BiFC cell model, inhibition of Forskolin-induced tau protein aggregation; assay type: cell-based; conditions: Forskolin 30 μM, 48 hours; for Tau BiFC in cells Response (% @10 μM): 10 μM compound, Forskolin-only group = 100% tau protein-aggregated state; for IC50: tau-BiFC cells
T1 construct: BiFC fluorescent-protein fragments (type and halves not specified); expressed in transfected cells
T1 sequence (P10636 1-441 isoform P10636-8): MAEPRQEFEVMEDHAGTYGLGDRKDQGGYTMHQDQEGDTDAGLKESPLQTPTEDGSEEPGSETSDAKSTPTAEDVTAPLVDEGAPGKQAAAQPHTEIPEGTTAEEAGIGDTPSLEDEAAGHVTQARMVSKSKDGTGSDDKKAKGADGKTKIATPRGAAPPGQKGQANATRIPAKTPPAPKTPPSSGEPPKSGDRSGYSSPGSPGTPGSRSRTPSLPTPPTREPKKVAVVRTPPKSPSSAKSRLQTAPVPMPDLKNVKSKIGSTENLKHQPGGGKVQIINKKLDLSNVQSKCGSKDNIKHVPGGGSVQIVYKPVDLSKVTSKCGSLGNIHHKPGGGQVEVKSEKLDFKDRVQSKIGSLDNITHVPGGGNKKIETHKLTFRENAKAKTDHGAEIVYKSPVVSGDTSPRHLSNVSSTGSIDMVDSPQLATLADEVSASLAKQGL
Description: In order to select novel tau protein aggregation-inhibiting substances, tau-BiFC cell model, in which formation of tau oligomers in living cells is easily observed, was used. Tau-BiFC cells were aliquoted into a 384-well plate. On the next day, the cells were treated with each of the compounds prepared according to Examples 1 to 57 at concentrations of 1 μM, 3 μM, and 10 μM, together with Forskolin (at a treatment concentration of 30 μM), which is a compound inducing tau protein aggregation by activating tau phosphorylase PKA. After 48 hours, nuclei in the cells were stained using Hoechst (at a treatment concentration of 2 μg/mL), and BiFC fluorescence intensity was automatically measured using Operetta (PerkinElmer) to count stained nuclei in each well out of the entire well plate. The group treated only with Forskolin, which induces tau protein aggregation, was set to a reference point of a 100% tau protein-aggregated state, and the effects of the compounds were confirmed using the equation “BiFC fluorescence intensity due to compound synthesized according to embodiment of present invention/(fluorescence intensity of control group treated only with Forskolin inducing tau protein aggregation−fluorescence intensity of untreated control group)×100”. Furthermore, the degree of cytotoxicity induced by the newly synthesized compound was also measured based on the 100% cell viability of the group treated only with Forskolin as a reference, and the cytotoxicity value of each compound was calculated using the equation “(number of stained nuclei in group treated with compound/number of stained nuclei in group treated with Forskolin)×100”. Based on the treatment results, substances inhibiting intracellular tau protein aggregation were selected from a series of candidate groups showing a tau protein aggregation inhibition rate of 70% or more and cell viability of 100% at a compound treatment concentration of 10 μM or more.
In order to evaluate dose-dependent tau protein aggregation inhibition effects of the compounds selected according to Experimental Example 1 on tau protein aggregation, tau-BiFC cells were treated with the selected compounds at concentrations of 0.03 μM, […], 0.3 μM, 1 μM, 3 μM, 10 μM, and 30 μM, respectively, together with Forskolin (at a treatment concentration of 30 μM), which is a tau protein aggregation-inducing substance. After 48 hours, tau protein aggregation reaction and degrees of cytotoxicity were analyzed by observing images of the cells. IC50 and toxicity of the compounds were analyzed by way of nonlinear regression analysis of prism software (Graph Pad).

CYP2D6 = biological target: T2, CYP2D6 (Homo sapiens, UniProt P10635); test: Inhibitory effect on CYP coenzyme activity, human liver microsomes; assay type: in vitro ADME; conditions: 10 μM compound, human liver microsomes 0.25 mg/mL, substrate dextromethorphan, 15 minutes
T2 construct: human liver microsomes (0.25 mg/mL); from tissue; host or cells: human liver microsomes
T2 sequence (P10635 whole entry): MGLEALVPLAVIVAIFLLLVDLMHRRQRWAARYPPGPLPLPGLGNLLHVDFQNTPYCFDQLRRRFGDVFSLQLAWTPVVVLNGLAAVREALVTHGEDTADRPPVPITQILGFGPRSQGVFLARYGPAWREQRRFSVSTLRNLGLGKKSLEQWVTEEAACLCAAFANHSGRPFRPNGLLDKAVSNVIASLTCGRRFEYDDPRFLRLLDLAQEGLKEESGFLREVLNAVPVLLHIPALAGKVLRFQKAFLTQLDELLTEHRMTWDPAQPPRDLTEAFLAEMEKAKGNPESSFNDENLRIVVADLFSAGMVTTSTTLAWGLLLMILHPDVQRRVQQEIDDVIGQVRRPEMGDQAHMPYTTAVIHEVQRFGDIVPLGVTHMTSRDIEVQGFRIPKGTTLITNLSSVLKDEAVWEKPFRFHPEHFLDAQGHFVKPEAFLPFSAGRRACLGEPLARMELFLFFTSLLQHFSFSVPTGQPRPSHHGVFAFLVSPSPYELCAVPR
Outline: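 Human liver microsomes (0.25 mg/mL) in 0.1 M phosphate pH 7.4 were preincubated 5 min at 37 °C with a substrate cocktail (50 μM phenacetin, 10 μM diclofenac, 100 μM S-mephenytoin, 5 μM dextromethorphan, 2.5 μM midazolam) and 10 μM compound, then run 15 min with NADPH-generating system. Metabolites quantified by LC-MS/MS (MRM); activity expressed as % of untreated control.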

Row | Structure (SMILES) | Tau BiFC in cells Response (% @10 μM) (tau protein) | IC50 (tau protein) | CYP2D6 coenzyme activity (%) with respect to control group not treated (CYP2D6)
1 | CC(C)n1c(=O)n(C2CC2)c2ncc(NN=C(C#N)C#N)cc21 [Compound 53, (3-cyclopropyl-1-isopropyl-2-oxo-2,3-dihydro-1H-imidazo[4,5-b]pyridin-6-yl)carbonohydrazonoyl dicyanide] | −39% | 160 nM | >100%
2 | Cn1c(=O)oc2cc(NN=C(C#N)C#N)ccc21 [Compound 16, (3-methyl-2-oxo-2,3-dihydrobenzo[d]oxazol-6-yl)carbonohydrazonoyl dicyanide] | 0% | 600 nM | >100%
3 | Cn1c(=O)n(C)c2cc(NN=C(C#N)C#N)c(Cl)cc21 [Compound 10, (6-chloro-1,3-dimethyl-2-oxo-2,3-dihydro-1H-benzo[d]imidazol-5-yl)carbonohydrazonoyl dicyanide] | 0% | 300 nM | >100%
4 | CC(C)n1c(=O)n(C2CC2)c2ccc(NN=C(C#N)C#N)cc21 [Compound 42, (1-cyclopropyl-3-isopropyl-2-oxo-2,3-dihydro-1H-benzo[d]imidazol-5-yl)carbonohydrazonoyl dicyanide] | −52% | 80 nM | >100%
5 | N#CC(C#N)=NNc1ccc2c(c1)sc(=O)n2C(F)F [Compound 19, (3-(difluoromethyl)-2-oxo-2,3-dihydrobenzo[d]thiazol-6-yl)carbonohydrazonoyl dicyanide] | 0% | 100 nM | 40.5%
6 | CCn1c(=O)n(C)c2cc(NN=C(C#N)C#N)cnc21 [Compound 48, (3-ethyl-1-methyl-2-oxo-2,3-dihydro-1H-imidazo[4,5-b]pyridin-6-yl)carbonohydrazonoyl dicyanide] | −18% | 60 nM | >100%
7 | CC(C)n1c(=O)oc2cc(NN=C(C#N)C#N)ccc21 [Compound 20, (3-isopropyl-2-oxo-2,3-dihydrobenzo[d]oxazol-6-yl)carbonohydrazonoyl dicyanide] | 0% | 100 nM | 98.1%
8 | Cn1c(=O)[nH]c2cc(NN=C(C#N)C#N)ccc21 [Compound 17, (1-methyl-2-oxo-2,3-dihydro-1H-benzo[d]imidazol-5-yl)carbonohydrazonoyl dicyanide] | 0% | 1200 nM | 87.1%
9 | N#CC(C#N)=NNc1ccc2c(c1)n(C(F)F)c(=O)n2C(F)F [Compound 24, (1,3-bis(difluoromethyl)-2-oxo-2,3-dihydro-1H-benzo[d]imidazol-5-yl)carbonohydrazonoyl dicyanide] | 0% | 200 nM | 82.5%
10 | N#CC(C#N)=NNc1ccc2[nH]c(=O)sc2c1 [Compound 13, (2-oxo-2,3-dihydrobenzo[d]thiazol-6-yl)carbonohydrazonoyl dicyanide] | 0.8% | 200 nM | 99.4%
11 | CCn1c(=O)n(C(C)C)c2ncc(NN=C(C#N)C#N)cc21 [Compound 55, (1-ethyl-3-isopropyl-2-oxo-2,3-dihydro-1H-imidazo[4,5-b]pyridin-6-yl)carbonohydrazonoyl dicyanide] | −32% | 110 nM | 85.8%
12 | Cn1c(=O)n(C)c2ncc(NN=C(C#N)C#N)cc21 [Compound 12, (1,3-dimethyl-2-oxo-2,3-dihydro-1H-imidazo[4,5-b]pyridin-6-yl)carbonohydrazonoyl dicyanide] | 0% | 870 nM | >100%
13 | N#CC(C#N)=NNc1ccc2[nH]c(=O)oc2c1 [Compound 15, (2-oxo-2,3-dihydrobenzo[d]oxazol-6-yl)carbonohydrazonoyl dicyanide] | 5.5% | 8400 nM | >100%
14 | Cn1c(=O)sc2cc(NN=C(C#N)C#N)ccc21 [Compound 14, (3-methyl-2-oxo-2,3-dihydrobenzo[d]thiazol-6-yl)carbonohydrazonoyl dicyanide] | 0% | 60 nM | 85.6%
15 | CC(C)n1ccc2c(NN=C(C#N)C#N)cccc2c1=O [Compound 6, (2-isopropyl-1-oxo-1,2-dihydroisoquinolin-5-yl)carbonohydrazonoyl dicyanide] | 0% | 700 nM | 85.4%
16 | CCn1c(=O)n(C)c2cc(NN=C(C#N)C#N)ccc21 [Compound 38, (1-ethyl-3-methyl-2-oxo-2,3-dihydro-1H-benzo[d]imidazol-5-yl)carbonohydrazonoyl dicyanide] | −31% | 30 nM | >100%
17 | CC(C)n1c(=O)n(C(F)F)c2cc(NN=C(C#N)C#N)ccc21 [Compound 43, (3-(difluoromethyl)-1-isopropyl-2-oxo-2,3-dihydro-1H-benzo[d]imidazol-5-yl)carbonohydrazonoyl dicyanide] | −49% | 10 nM | 82.2%
18 | CC(C)n1c(=O)n(C(C)C)c2cc(NN=C(C#N)C#N)ccc21 [Compound 23, (1,3-diisopropyl-2-oxo-2,3-dihydro-1H-benzo[d]imidazol-5-yl)carbonohydrazonoyl dicyanide] | 0% | 100 nM | 95.3%
19 | N#CC(C#N)=NNc1cccc2c(=O)[nH]ccc12 [Compound 4, (1-oxo-1,2-dihydroisoquinolin-5-yl)carbonohydrazonoyl dicyanide] | 0% | 1800 nM | 91.1%
20 | Cn1c(=O)n(C(F)F)c2cc(NN=C(C#N)C#N)ccc21 [Compound 37, (3-(difluoromethyl)-1-methyl-2-oxo-2,3-dihydro-1H-benzo[d]imidazol-5-yl)carbonohydrazonoyl dicyanide] | −49% | 200 nM | >100%
21 | COc1cc(NN=C(C#N)C#N)cc2c1n(C)c(=O)n2C [Compound 33, (7-methoxy-1,3-dimethyl-2-oxo-2,3-dihydro-1H-benzo[d]imidazol-5-yl)carbonohydrazonoyl dicyanide] | −43% | 5 nM | >100%
22 | N#CC(C#N)=NNc1ccc2c(c1)oc(=O)n2C(F)F [Compound 21, (3-(difluoromethyl)-2-oxo-2,3-dihydrobenzo[d]oxazol-6-yl)carbonohydrazonoyl dicyanide] | 0% | 600 nM | 89.1%
23 | Cc1cc2c(NN=C(C#N)C#N)cccc2c(=O)n1C [Compound 7, (2,3-dimethyl-1-oxo-1,2-dihydroisoquinolin-5-yl)carbonohydrazonoyl dicyanide] | 0% | 200 nM | 86.2%
24 | CCn1c(=O)n(C)c2ccc(NN=C(C#N)C#N)cc21 [Compound 35, (3-ethyl-1-methyl-2-oxo-2,3-dihydro-1H-benzo[d]imidazol-5-yl)carbonohydrazonoyl dicyanide] | −44% | 10 nM | >100%
